Reference: PMC10525257, “Hop Flower Supercritical Carbon Dioxide Extracts Coupled with Carriers with Solubilizing Properties—Antioxidant Activity and Neuroprotective Potential” (Antioxidants, 2023)
In brackets after ≈: the same amount, converted by molar mass.

Target: T1, tyrosinase from mushroom
T1 construct: gene PPO1
Experiment: dopachrome absorbance, […] nm, 96-well plate
Assay type: biochemical
Conditions: L-DOPA substrate (2.0 mM stock), phosphate buffer pH 6.8, room temperature

For `O=C(O)CCCCCCCC(=O)O` [azelaic acid], the IC50 was 6455 ± 249 µg/mL (≈ 34.3 mM).
